Measured values as given in PMC10987949, “Inhibition of HIV-1 release by ADAM metalloproteinase inhibitors” (Frontiers in Microbiology, 2024).

How the values were obtained:
TNFα release = TNFα release ELISA, stimulated CD4 T cells; assay type: cell-based, human; conditions: PHA or anti-CD3 stimulated CD4 T cells
Method: PBMC from de-identified healthy donors were obtained with informed consent from the Department of Transfusion Medicine, National Institutes of Health under Biological reagent Registry RD-14-IX-12 approved by NIH biological safety board. CD8-depleted PBMCs, either stimulated or non-stimulated with 10 μg/mL phytohaemagglutinin (PHA) or anti-CD3 antibody (with or without conjugated beads), were plated at 2×10^6 cells/ml in 48 well plates in RPMI 1640 + 10%FBS (R10) to a final volume of 1 mL in each well. IL-2 was added at a final concentration of 20 U/mL. CD3 antibody okt3 was used at ~0.2 μg/mL final concentration. Compounds were prepared in appropriate solvents according to the manufacturer’s instructions, diluted to working concentrations using RPMI 1640 + 10%FBS (R10), and added to the cell cultures for 6–24 h for CD62L shedding, and 48 h for TNF-α release. Supernatants were collected and assessed using either the CD62L or TNF-α Duo Set ELISA kit according to manufacturer’s instructions (R&D Systems, Inc.). The viability of cells treated with compounds was assessed by acridine orange / propidiom iodide (AO/PI Logosbio catalog F23001) staining using Luna-FL cell counter following the manufacture’s instruction.^2

HIV-1LAI = assay: TEM of immunogold labeled CD62L on HIV-1LAI infected PBMC; assay type: cell-based
Method: For immunogold labeling, ~10^6 cells were washed with 2 mL PBS, gently centrifuged at 250 g for 5 min, resuspended in 100 μL of labeling buffer (PBS with 1% BSA), and incubated with 10 μg of mouse anti-human CD62L (clone FMC46, Thermofisher) for 1 h on ice. After removal of the primary antibody and wash, cells were incubated with 10 μg of secondary goat anti-mouse IgG H&L conjugated to 10 nm gold nanoparticles (Electron Microscopy Sciences) for 1 h on ice, then washed and fixed in 2.5% glutaraldehyde with 0.1 M sodium cacodylate at pH 7.4. Specimens for transmission electron microscopy (TEM) were fixed with 2.5% glutaraldehyde in 0.1 M Sorenson’s buffer. Samples were post-fixed 1 h with 0.5% osmium tetroxide/0.8% potassium ferricyanide, 1 h with 1% tannic acid and overnight with 1% uranyl acetate at 4°C. Samples were dehydrated with a graded ethanol series and embedded in Spurr’s resin. Thin sections were cut with a Leica UCT ultramicrotome (Vienna, Austria) stained with 1% uranyl acetate and Reynold’s lead citrate prior to viewing at 80 kV on a Hitachi 7500 transmission electron microscope (Hitachi-High Technologies, Tokyo, Japan). Approximately 100 images were acquired with an AMT digital camera system (AMT, Chazy, NY) from each sample on sections containing HIV virions. HIV virions are identified as ~100 nm sized particles with visible membrane enclosed capsid.

HIV = tested on: HIV; design: method as in Kononchik et al., 2018; conditions: ref Kononchik et al., 2018; cited from earlier work

Question: Which “effect on TNFα release” value (TNFα release) does the source give for `CNC(=O)[C@H](Cc1ccccc1)NC(=O)[C@H](CC(C)C)[C@H](CSc1cccs1)C(=O)NO` [BB-94, Batimastat] here?
Answer: The value was “inhibited”.

Question: And the “gold particles bound to cell surface virions” value (HIV-1LAI; 50 μM, count in TEM images)?
Answer: The value was 63.

Question: What about the “gold particles bound to released virions” value (HIV-1LAI; 50 μM, count in TEM images) of the same compound?
Answer: The value was 17.

Question: And the “fraction of virion-associated gold particles on CD62L-tethered (budding) virions” value (HIV-1LAI; in presence of compound, DMSO 45%)?
Answer: Its value is 79%.

Question: What about the “fraction of virion-associated gold particles on released virions” value (HIV-1LAI; in presence of compound, DMSO 55%) of the same compound?
Answer: The value was 21%.

Question: What about the “effect on HIV cell-to-cell transfer infections” value (HIV) of the same compound?
Answer: The value was “effectively suppressed HIV cell-to-cell transfer infections”.
